# From patent US9822147B2, “Methods of treating ophthalmic diseases using NPR-B agonists” (priority 2009, dated 2017)
# Numbered stars: 1 amine (or outer) side, 2 acyl side, 3 side chain; on linkers, the order of the positions; unused ones are H or OH. Square brackets hold non-standard residues; d marks the D form. Peptide text beside a SMILES is read from it. * marks the point of attachment. Phe(3-CF3) = N[C@@H](Cc1cccc(C(F)(F)F)c1)C(=O)O; Phe(3-Cl) = N[C@@H](Cc1cccc(Cl)c1)C(=O)O; Phe(4-Br) = N[C@@H](Cc1ccc(Br)cc1)C(=O)O; X7 = N[C@@H]1CCN([*:1])[C@@H]1C(=O)[*:2]; Gly(cPent) = N[C@H](C(=O)O)C1CCCC1; X2 = O=C([C@H]1CCCN([*:1])C1)[*:2]; dDap(Me2) = CN(C)C[C@@H](N)C(=O)O; Hyp = O=C(O)[C@@H]1C[C@@H](O)CN1; 3Thi = N[C@@H](Cc1ccsc1)C(=O)O; NHcycloheptyl = C1CCCC(N*)CC1; NMeL = CN[C@@H](CC(C)C)C(=O)O; Nle = CCCC[C@H](N)C(=O)O; Octanoyl = CCCCCCCC(=O)*; Thz = O=C(O)[C@@H]1CSCN1; tBu = CC(C)(C)*
# Molecular target: T1, NPR-B (Homo sapiens, UniProt P20594)
# T1 construct: a functional assay using endogenously NPR-B expressing GTM-3 cells; endogenous in cells; host or cells: GTM-3 (human glaucoma trabecular meshwork cells)
# T1 sequence (P20594 23-1047): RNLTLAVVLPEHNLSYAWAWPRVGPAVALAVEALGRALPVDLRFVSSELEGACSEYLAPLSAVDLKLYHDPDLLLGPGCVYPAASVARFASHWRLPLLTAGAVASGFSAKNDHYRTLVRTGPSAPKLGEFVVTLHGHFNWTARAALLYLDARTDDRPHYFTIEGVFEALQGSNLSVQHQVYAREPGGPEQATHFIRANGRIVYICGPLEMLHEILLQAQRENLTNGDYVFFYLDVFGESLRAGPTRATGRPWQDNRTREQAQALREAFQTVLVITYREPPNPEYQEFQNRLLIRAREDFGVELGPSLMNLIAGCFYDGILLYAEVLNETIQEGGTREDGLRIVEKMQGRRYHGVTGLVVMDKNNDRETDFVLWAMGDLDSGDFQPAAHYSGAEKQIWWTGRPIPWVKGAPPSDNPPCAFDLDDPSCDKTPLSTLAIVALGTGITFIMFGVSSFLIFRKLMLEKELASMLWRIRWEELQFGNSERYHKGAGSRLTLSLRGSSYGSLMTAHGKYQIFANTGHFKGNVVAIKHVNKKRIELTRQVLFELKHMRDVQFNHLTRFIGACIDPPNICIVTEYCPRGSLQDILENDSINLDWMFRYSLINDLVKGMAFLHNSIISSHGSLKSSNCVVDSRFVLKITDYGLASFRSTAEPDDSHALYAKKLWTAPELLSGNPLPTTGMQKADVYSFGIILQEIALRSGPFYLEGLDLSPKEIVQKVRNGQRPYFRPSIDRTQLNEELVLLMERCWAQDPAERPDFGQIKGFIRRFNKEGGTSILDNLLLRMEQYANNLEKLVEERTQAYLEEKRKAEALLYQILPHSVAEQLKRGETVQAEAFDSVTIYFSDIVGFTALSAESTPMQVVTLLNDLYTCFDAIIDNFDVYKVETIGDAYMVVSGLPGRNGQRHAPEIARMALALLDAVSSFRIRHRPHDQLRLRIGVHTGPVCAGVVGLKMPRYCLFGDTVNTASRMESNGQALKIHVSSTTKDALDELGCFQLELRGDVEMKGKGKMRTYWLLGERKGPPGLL
# Assay: NPR-B induced production of cyclic GMP in human glaucoma trabecular meshwork cells (GTM-3)
# Format: cell-based
# Conditions: group by EC50 and Emax (CNP = 100%); Table 4; read-out: Activity (group), NPR-B activation assayed with GTM-3 cells
row,EC50 [µM],SMILES
1,< 1,"CCCCCCCC(=O)N1CCC[C@H](C(=O)N[C@@H](Cc2ccccc2)C(=O)N[C@H](CN(C)C)C(=O)N[C@@H](CC(C)C)C(=O)N2C[C@H](O)C[C@H]2C(=O)N(C)[C@@H](CC(C)C)C(=O)N[C@@H](CC(=O)O)C(=O)N2CCC[C@H]2C(=O)NC2CCCCCC2)C1 [JAL-1604, Occ-Sni-Phe-dap(Me2)-Leu-Hyp-Nml-Asp-Pro-Che] (Octanoyl-[X2]F[dDap(Me2)]L[Hyp][NMeL]DP-NHcycloheptyl)"
2,< 1,"CC[C@H](C)[C@H](NC(=O)[C@H](CCCNC(=N)N)NC(=O)[C@H](CC(=O)O)NC(=O)[C@H](CC(C)C)N(C)C(=O)[C@@H]1C[C@@H](O)CN1C(=O)[C@H](CC(C)C)NC(=O)[C@@H](CC(C)C)NC(=O)[C@H](Cc1ccccc1)NC(=O)[C@H]1CCCN(C(=O)CCCc2ccccc2)C1)C(N)=O [JAL-1605, 1319-Sni-Phe-leu-Leu-Hyp-Nml-Asp-Arg-Ile-NH2] (HELM PEPTIDE1{[O=C(CCCc1ccccc1)[*:2]].[O=C([C@H]1CCCN([*:1])C1)[*:2]].F.[dL].L.[Hyp].[meL].D.R.I.[am]}$$$$V2.0)"
3,< 1,"CCCCCCCC(=O)N1CCC[C@H](C(=O)N[C@@H](Cc2cccc(Cl)c2)C(=O)N[C@H](CC(C)C)C(=O)N[C@@H](CC(C)C)C(=O)N2C[C@H](O)C[C@H]2C(=O)N(C)[C@@H](CC(C)C)C(=O)N[C@@H](CC(=O)O)C(=O)N[C@@H](CCCNC(=N)N)C(=O)N[C@H](C(N)=O)[C@@H](C)CC)C1 [JAL-1618, Occ-Sni-Mcf-leu-Leu-Hyp-Nml-Asp-Arg-Ile-NH2] (Octanoyl-[X2][Phe(3-Cl)][dL]L[Hyp][NMeL]DRI-NH2)"
4,< 1,"CCCCCCCC(=O)N1CCC[C@H](C(=O)N[C@@H](Cc2ccc(Br)cc2)C(=O)N[C@H](CC(C)C)C(=O)N[C@@H](CC(C)C)C(=O)N2C[C@H](O)C[C@H]2C(=O)N(C)[C@@H](CC(C)C)C(=O)N[C@@H](CC(=O)O)C(=O)N[C@@H](CCCNC(=N)N)C(=O)N[C@H](C(N)=O)[C@@H](C)CC)C1 [JAL-1619, Occ-Sni-Pbf-leu-Leu-Hyp-Nml-Asp-Arg-Ile-NH2] (Octanoyl-[X2][Phe(4-Br)][dL]L[Hyp][NMeL]DRI-NH2)"
5,< 1,"CCCCCCCC(=O)N1CCC[C@H](C(=O)N[C@@H](Cc2ccsc2)C(=O)N[C@H](CC(C)C)C(=O)N[C@@H](CC(C)C)C(=O)N2C[C@H](O)C[C@H]2C(=O)N(C)[C@@H](CC(C)C)C(=O)N[C@@H](CC(=O)O)C(=O)N[C@@H](CCCNC(=N)N)C(=O)N[C@H](C(N)=O)[C@@H](C)CC)C1 [JAL-1620, Occ-Sni-Thk-leu-Leu-Hyp-Nml-Asp-Arg-Ile-NH2] (Octanoyl-[X2][3Thi][dL]L[Hyp][NMeL]DRI-NH2)"
6,< 1,"CCCCCCCC(=O)N1CCC[C@H](C(=O)N[C@@H](Cc2cccc(C(F)(F)F)c2)C(=O)N[C@H](CC(C)C)C(=O)N[C@@H](CC(C)C)C(=O)N2C[C@H](O)C[C@H]2C(=O)N(C)[C@@H](CC(C)C)C(=O)N[C@@H](CC(=O)O)C(=O)N[C@@H](CCCNC(=N)N)C(=O)N[C@H](C(N)=O)[C@@H](C)CC)C1 [JAL-1621, Occ-Sni-Mtf-leu-Leu-Hyp-Nml-Asp-Arg-Ile-NH2] (Octanoyl-[X2][Phe(3-CF3)][dL]L[Hyp][NMeL]DRI-NH2)"
7,< 1,"CCCCCCCC(=O)N1CCC[C@H](C(=O)N[C@@H](Cc2ccccc2)C(=O)N[C@H](CSC(C)(C)C)C(=O)N[C@@H](CC(C)C)C(=O)N2C[C@H](O)C[C@H]2C(=O)N(C)[C@@H](CC(C)C)C(=O)N[C@@H](CC(=O)O)C(=O)N[C@@H](CCCNC(=N)N)C(=O)N[C@H](C(N)=O)[C@@H](C)CC)C1 [JAL-1623, Occ-Sni-Phe-ctb-Leu-Hyp-Nml-Asp-Arg-Ile-NH2] (Octanoyl-[X2]F[dC](tBu)L[Hyp][NMeL]DRI-NH2)"
8,< 1,"CCCCCCCC(=O)N1CCC[C@H](C(=O)N[C@@H](Cc2ccccc2)C(=O)N[C@H](CC(C)C)C(=O)N[C@@H](CCCC)C(=O)N2C[C@H](O)C[C@H]2C(=O)N(C)[C@@H](CC(C)C)C(=O)N[C@@H](CC(=O)O)C(=O)N[C@@H](CCCNC(=N)N)C(=O)N[C@H](C(N)=O)[C@@H](C)CC)C1 [JAL-1624, Occ-Sni-Phe-leu-Nle-Hyp-Nml-Asp-Arg-Ile-NH2] (HELM PEPTIDE1{[CCCCCCCC(=O)[*:2]].[O=C([C@H]1CCCN([*:1])C1)[*:2]].F.[dL].[Nle].[Hyp].[meL].D.R.I.[am]}$$$$V2.0)"
9,< 1,"CCCCCCCC(=O)N1CCC[C@H](C(=O)N[C@@H](Cc2ccccc2)C(=O)N[C@H](CC(C)C)C(=O)N[C@@H](CC(C)C)C(=O)N2C[C@H](O)C[C@H]2C(=O)N[C@H](C(=O)N[C@@H](CC(=O)O)C(=O)N[C@@H](CCCNC(=N)N)C(=O)N[C@H](C(N)=O)[C@@H](C)CC)[C@@H](C)CC)C1 [JAL-1625, Occ-Sni-Phe-leu-Leu-Hyp-Ile-Asp-Arg-Ile-NH2] (HELM PEPTIDE1{[CCCCCCCC(=O)[*:2]].[O=C([C@H]1CCCN([*:1])C1)[*:2]].F.[dL].L.[Hyp].I.D.R.I.[am]}$$$$V2.0)"
10,< 1,"CCCCCCCC(=O)N1CCC[C@H](C(=O)N[C@@H](Cc2ccccc2)C(=O)N[C@H](CC(C)C)C(=O)N[C@@H](CC(C)C)C(=O)N2C[C@H](O)C[C@H]2C(=O)N[C@H](C(=O)N[C@@H](CC(=O)O)C(=O)N[C@@H](CCCNC(=N)N)C(=O)N[C@H](C(N)=O)[C@@H](C)CC)C2CCCC2)C1 [JAL-1626, Occ-Sni-Phe-leu-Leu-Hyp-Cpg-Asp-Arg-Ile-NH2] (Octanoyl-[X2]F[dL]L[Hyp][Gly(cPent)]DRI-NH2)"
11,< 1,"CCCCCCCC(=O)N1CCC[C@H](C(=O)N[C@@H](Cc2ccccc2)C(=O)N[C@H](CC(C)C)C(=O)N[C@@H](CC(C)C)C(=O)N2C[C@H](O)C[C@H]2C(=O)N(C)[C@@H](CC(C)C)C(=O)N[C@@H](CC(=O)O)C(=O)N2CSC[C@H]2C(=O)NC2CCCCCC2)C1 [JAL-1638, Occ-Sni-Phe-leu-Leu-Hyp-Nml-Asp-Eaz-Che] (Octanoyl-[X2]F[dL]L[Hyp][NMeL]D[Thz]-NHcycloheptyl)"
12,< 1,"CCCCCCCC(=O)N1CCC[C@H](C(=O)N[C@@H](Cc2ccccc2)C(=O)N[C@H](CC(C)C)C(=O)N[C@@H](CCCC)C(=O)N2C[C@H](O)C[C@H]2C(=O)N(C)[C@@H](CC(C)C)C(=O)N[C@@H](CC(=O)O)C(=O)N2CCC[C@H]2C(=O)NC2CCCCCC2)C1 [JAL-1657, Occ-Sni-Phe-leu-Nle-Hyp-Nml-Asp-Pro-Che] (Octanoyl-[X2]F[dL][Nle][Hyp][NMeL]DP-NHcycloheptyl)"
13,< 1,"CCCCCCCCCC(=O)N1CCC[C@H](C(=O)N[C@@H](Cc2ccccc2)C(=O)N[C@H](CC(C)C)C(=O)N[C@@H](CC(C)C)C(=O)N2C[C@H](O)C[C@H]2C(=O)N(C)[C@@H](CC(C)C)C(=O)N[C@@H](CC(=O)O)C(=O)N[C@@H](CCCNC(=N)N)C(=O)N[C@H](C(N)=O)[C@@H](C)CC)C1 [JAL-1666, 5587-Sni-Phe-leu-Leu-Hyp-Nml-Asp-Arg-Ile-NH2] (HELM PEPTIDE1{[CCCCCCCCCC(=O)[*:2]].[O=C([C@H]1CCCN([*:1])C1)[*:2]].F.[dL].L.[Hyp].[meL].D.R.I.[am]}$$$$V2.0)"
14,< 1,"CCCCCCCC(=O)N[C@H]1CCN([C@@H](Cc2ccccc2)C(=O)N[C@H](CC(C)C)C(=O)N[C@@H](CC(C)C)C(=O)N2C[C@H](O)C[C@H]2C(=O)N(C)[C@@H](CC(C)C)C(=O)N[C@@H](CC(=O)O)C(=O)N[C@@H](CCCNC(=N)N)C(=O)N[C@H](C(N)=O)[C@@H](C)CC)C1=O [JAL-1671, Occ-(AFL)-leu-Leu-Hyp-Nml-Asp-Arg-Ile-NH2]"
15,< 1,"CCCCCCCC(=O)N1CCC[C@H](C(=O)N[C@@H](Cc2ccccc2)C(=O)N[C@H](CC(C)C)C(=O)N[C@@H](CC(C)C)C(=O)N2C[C@H](O)C[C@H]2C(=O)N(C)[C@@H](CC(C)C)C(=O)N[C@@H](CC(=O)O)C(=O)N2CC[C@@H](N)[C@H]2C(=O)NC2CCCCCC2)C1 [JAL-1679, Occ-Sni-Phe-leu-Leu-Hyp-Nml-Asp-Pca-Che] (Octanoyl-[X2]F[dL]L[Hyp][NMeL]D[X7]-NHcycloheptyl)"

row,SMILES,EC50 [µM]
1,"CC[C@H](C)[C@H](NC(=O)[C@H](CCCNC(=N)N)NC(=O)[C@H](CC(=O)O)NC(=O)[C@H](CC(C)C)N(C)C(=O)[C@@H]1C[C@@H](O)CN1C(=O)[C@H](CC(C)C)NC(=O)[C@@H](CC(C)C)NC(=O)[C@H](Cc1ccccc1)NC(=O)[C@H]1CCCN(C(=O)CCCCc2ccccc2)C1)C(N)=O [JAL-1606, 1320-Sni-Phe-leu-Leu-Hyp-Nml-Asp-Arg-Ile-NH2] (HELM PEPTIDE1{[O=C(CCCCc1ccccc1)[*:2]].[O=C([C@H]1CCCN([*:1])C1)[*:2]].F.[dL].L.[Hyp].[meL].D.R.I.[am]}$$$$V2.0)",< 1
